Laboratory results reported in patent US7179824B2, “Arthropodicidal anthranilamides” (E. I. du Pont de Nemours and Company, priority 2001, dated 2007).

melting point: 173 to 176 °C
Compound: Cc1cc(Cl)cc(C(=O)NC(C)C)c1N(C(=O)c1cc(C(F)(F)F)n[nH]1)c1ncccc1Cl [Compound 4, N-[4-chloro-2-methyl-6-[[(1-methylethyl)amino]carbonyl]phenyl]-N-(3-chloro-2-pyridinyl)-3-(trifluoromethyl)-1H-pyrazole-5-carboxamide]
